“And” between values parts separate entries of the source, which are not always exact repeats. Equal values may be shown once. Read-outs that look alike come from different tables or passages of the source.
How the values were obtained:
Assay type in all cases: cell-based
MDA-MB-453 cells = assay: Cell growth inhibition assay (sulforhodamine B), single agents and combinations; conditions: MDA-MB-453, single agent, 3 days
Protocol: (§1) The effect of the inventive compositions on the cancer cell growth inhibition was conducted in EGFR-overexpressed or -mutated cancer cell lines.
(§2) All cells except for H1975 were cultured for 72 hours prior to cell plating. Cells were seeded in a 96-well plate at 4 to 15×10^3 cells/well. Approximately 24 hours after plating, cells were exposed to ten, two-fold or three fold serial dilutions of test individual compounds or the combination of the two test compounds at a constant molar to molar ratio or non-constant ratio of two agents. Cells were incubated in the presence of compounds for 3 days except for H1975, which was for 2 days at 3×10^3 cells/well.
(§3) Cell growth inhibition based on measurement of cellular protein content is determined by sulforhodamine B colorimetric assay according to the “Nat Protoc. […] The absorbance was read on a SpectraMax™ plate reader at 540 nm. For H1975 cells, cell growth (%) is determined by adding CellTiter™ 96 Aqueous One Solution Cell Proliferation Assay reagent (Promega) according to the manufacturer's protocol.
(§4) Inhibition of cell growth was estimated after treatment with test agent or combination of test agents for incubating time (2-3 days) and comparing the signal to cells treated with vehicle (DMSO). Cell growth (%) was calculated by following equations.
(§5) Percentage growth inhibition was calculated using:
(§6) a. [(Ti−Tz)/(C−Tz)]×100, for concentrations for which Ti=Tz
(§7) b. [(Ti−Tz)/Tz]×100, for concentrations for which Ti<Tz
(§8) Each T value means an absorbance. Tz: Time zero (cell density group before the treatment of test group), C:100% control growth […] test agent, Ti: Test growth in the presence of drug at the concentration levels.
(§9) Combination effects on potency were evaluated by combination Index using Calcusyn™ Software. The range of Combination Index (CI) for two compounds is described in Table 2.
(§10) Fifty percent growth inhibition values (GI50) for combinations of poziotinib with partner drugs were calculated and the single dosing growth inhibition (%) at the dose of combo GI50 were also calculated by using GraphPad Prism™ v6. The combination Index (CI) at the dose of combination GI50 was evaluated by using CalcuSyn™ (Biosoft).

BT-474 cells = assay: as above; conditions: BT-474, single agent, 3 days
Protocol: as §1, §2, §3, §4, §5, §6, §7, §8, §9, §10

HCC827 cells = assay: as above; conditions: HCC827, single agent, 3 days
Protocol: as §1, §2, §3, §4, §5, §6, §7, §8, §9, §10

H1975 cells = assay: Cell growth inhibition assay (CellTiter 96 Aqueous One), single agents and combinations; conditions: H1975, single agent, 2 days
Protocol: as §1, §2, §3, §4, §5, §6, §7, §8, §9, §10

Calu-3 cell line = assay: Synergy effect study on cell proliferation (Example 2), single agents and 6x6 combo matrix; conditions: Calu-3, single compound; for Max inh. / IC50: 3 days
Protocol: as §2, with “Cells” for “All cells except for H1975 were cultured for 72 hours prior to cell plating. Cells”, “days.” for “days except for H1975, which was for 2 days at 3×10^3 cells/well.”
as §4
(§11) Percentage growth inhibition was calculated using both Bliss independence model and Lowewe additivity model. A score higher than 5 indicates synergy and a score less that −5 indicates antagonism.

BT-474 cell line = assay: as above; conditions: BT-474, single compound; for Max inh. / IC50: 3 days
Protocol: as §2, with “Cells” for “All cells except for H1975 were cultured for 72 hours prior to cell plating. Cells”, “days.” for “days except for H1975, which was for 2 days at 3×10^3 cells/well.”
as §4, §11

SK-BR-3 cell line = assay: as above; conditions: SK-BR-3, single compound, 3 days
Protocol: In this example, effects of direct cell killing of selected cancer cell line Calu-3, BT-474 and SK-BR-3 treated with Poziotinib alone or in combination with other agents were assessed.
as §2, with “cells” for “cells except for H1975”, “in the media listed in the temperature of 37° C., 5% CO2 and 95% humidity.” for “for 72 hours prior to cell plating.”, “days.” for “days except for H1975, which was for 2 days at 3×10^3 cells/well.”
as §4, §11
Calu-3, BT-474 or SK-BR-3 cell lines were tested with Poziotinib combined with a second compound respectively in a 6×6 combo matrix for 3 days at 37° C., 5% CO2 and 95% humidity as shown in combinations shown in the tables herein below: […]

TE-4 cells = assay: Cell growth inhibition assay (sulforhodamine B), single agents and combinations; conditions: 72 h; TE-4, single agent, 3 days
Protocol: The effect of the inventive compositions on the cancer cell growth inhibition was conducted in EGFR-overexpressed or -mutated cancer cell lines. […] All cells except for H1975 were cultured for 72 hours prior to cell plating. […] Approximately 24 hours after plating, cells were exposed to ten, two-fold or three fold serial dilutions of test individual compounds or the combination of the two test compounds at a constant molar to molar ratio or non-constant ratio of two agents. Cells were incubated in the presence of compounds for 3 days except for H1975, which was for 2 days at 3×10^3 cells/well. Cell growth inhibition based on measurement of cellular protein content is determined by sulforhodamine B colorimetric assay according to the “Nat Protoc. […] The absorbance was read on a SpectraMax™ plate reader at 540 nm. For H1975 cells, cell growth (%) is determined by adding CellTiter™ 96 Aqueous One Solution Cell Proliferation Assay reagent (Promega) according to the manufacturer's protocol. […] Cell growth (%) was calculated by following equations. Percentage growth inhibition was calculated using: a. […] [(Ti−Tz)/Tz]×100, for concentrations for which Ti<Tz Each T value means an absorbance. […] Combination effects on potency were evaluated by combination Index using Calcusyn™ Software. […] The combination Index (CI) at the dose of combination GI50 was evaluated by using CalcuSyn™ (Biosoft).

MDA-MB-361 cells = assay: as above; conditions: Homo sapiens, 72 h; MDA-MB-361, single agent, 3 days
Protocol: as §1, §2, §3, §4, §5, §6, §7, §8, §9, §10

MDA-MB-468 cells = assay: as above; conditions: Homo sapiens, 72 h; MDA-MB-468, single agent, 3 days
Protocol: as §1, §2, §3, §4, §5, §6, §7, §8, §9, §10

N87 cells = assay: as above; conditions: 72 h; N87, single agent, 3 days
Protocol: as §1, §2, §3, §4, §5, §6, §7, §8, §9, §10

MCF-7 cells = assay: as above; conditions: Homo sapiens, MCF7, 72 h; MCF-7, single agent, 3 days
Protocol: as §1, §2, §3, §4, §5, §6, §7, §8, §9, §10

SK-BR-3 cells = assay: as above; conditions: Homo sapiens, SK-BR-3, 72 h; SK-BR3, single agent, 3 days
Protocol: as §1, §2, §3, §4, §5, §6, §7, §8, §9, §10

[1] = Homo sapiens, Calu-3, 72 h, read-out: IC50

## CC(=O)O[C@H]1C(=O)[C@@]2(C)[C@H]([C@H](OC(=O)c3ccccc3)[C@]3(O)C[C@H](OC(=O)[C@H](O)[C@@H](NC(=O)c4ccccc4)c4ccccc4)C(C)=C1C3(C)C)[C@]1(OC(C)=O)CO[C@@H]1C[C@@H]2O [Paclitaxel]
MDA-MB-453 cells; Homo sapiens, MDA-MB-453, 72 h
  GI50: 0.003 µM
BT-474 cells; Homo sapiens, BT-474, 72 h
  GI50: 0.001 µM
HCC827 cells; Homo sapiens, 72 h
  GI50: 0.0034 µM
H1975 cells; Homo sapiens, NCI-H1975, 48 h
  GI50: 0.0216 µM

## Nc1nc2[nH]cc(CCc3ccc(C(=O)N[C@@H](CCC(=O)O)C(=O)O)cc3)c2c(=O)[nH]1 [Pemetrexed]
Calu-3 cell line
  cell inhibitory activity (in words): not effective
  Max inh.: 49.78%
Calu-3 cell line; [1]
  IC50: > 10 µM
BT-474 cell line
  cell inhibitory activity (in words): not effective
  Max inh.: 1.78%
BT-474 cell line; Homo sapiens, 72 h
  IC50: > 10 µM

## CC(=O)Nc1cccc(-n2c(=O)n(C3CC3)c(=O)c3c(Nc4ccc(I)cc4F)n(C)c(=O)c(C)c32)c1 [Trametinib]
Calu-3 cell line
  Max inh.: 89.69%
Calu-3 cell line; [1]
  IC50: 0.042 µM
BT-474 cell line
  Max inh.: 15.91%
BT-474 cell line; Homo sapiens, 72 h
  IC50: > 10 µM

## CO[C@H]1C[C@@H]2CC[C@@H](C)[C@@](O)(O2)C(=O)C(=O)N2CCCC[C@H]2C(=O)O[C@H]([C@H](C)C[C@@H]2CC[C@@H](OC(=O)C(C)(CO)CO)[C@H](OC)C2)CC(=O)[C@H](C)/C=C(\C)[C@@H](O)[C@@H](OC)C(=O)[C@H](C)C[C@H](C)/C=C/C=C/C=C/1C [Temsirolimus]
Calu-3 cell line
  Max inh.: 58.19%
Calu-3 cell line; [1]
  IC50: 0.167 µM

## C=CC(=O)N1CCC(Oc2cc3c(Nc4ccc(Cl)c(Cl)c4F)ncnc3cc2OC)CC1 [Poziotinib, 1-[4-[4-(3,4-dichloro-2-fluoroanilino)-7-methoxyquinazolin-6-yl]oxypiperidin-1-yl]prop-2-en-1-one]
SK-BR-3 cell line; Homo sapiens, 72 h
  IC50: 0.001 µM
SK-BR-3 cell line
  Max inh.: 57.81%
TE-4 cells
  GI50: 0.0008 µM
Calu-3 cell line
  Max inh.: 94.51% and 81.67%
Calu-3 cell line; listed as Pozotinb
  Max inh.: 89.22%
BT-474 cell line
  Max inh.: 71.74%
BT-474 cell line; listed as Pozotinb
  IC50: < 0.0015 µM
  Max inh.: 68.16%
BT-474 cell line; Homo sapiens, 72 h
  IC50: < 0.0015 µM
MDA-MB-361 cells
  GI50: 0.021 µM
MDA-MB-468 cells
  GI50: 0.64 µM
N87 cells
  GI50: 0.0001 µM
MCF-7 cells
  GI50: 2.74 µM
MDA-MB-453 cells; Homo sapiens, MDA-MB-453, 72 h
  GI50: 0.0025 µM
BT-474 cells; Homo sapiens, BT-474, 72 h
  GI50: 0.0005 µM
HCC827 cells; Homo sapiens, 72 h
  GI50: 0.0004 µM
SK-BR-3 cells
  GI50: 0.0009 µM
H1975 cells
  GI50: 0.0013 µM

## CCC1=C[C@@H]2CN(C1)Cc1c([nH]c3ccccc13)[C@@](C(=O)OC)(c1cc3c(cc1OC)N(C)[C@H]1[C@@](O)(C(=O)OC)[C@H](OC(C)=O)[C@]4(CC)C=CCN5CC[C@]31[C@@H]54)C2 [Vinorelbine]
MDA-MB-361 cells
  GI50: 0.0011 µM
MDA-MB-468 cells
  GI50: 0.0003 µM
MCF-7 cells
  GI50: 0.0036 µM
BT-474 cells; Homo sapiens, BT-474, 72 h
  GI50: 0.0023 µM
SK-BR-3 cells
  GI50: 0.0017 µM

## N.N.[Cl][Pt][Cl] [Cisplatin]
SK-BR-3 cell line
  IC50: 0.549 µM
  Max inh.: 98.11%
Calu-3 cell line
  Max inh.: 59.75% and 69.39% and 68.77%
BT-474 cell line
  IC50: > 100 µM
  Max inh.: 41.78% and 37.43%
MDA-MB-453 cells
  GI50: > 10 µM
BT-474 cells
  GI50: > 20 µM
HCC827 cells
  GI50: > 20 µM
H1975 cells
  GI50: > 10 µM

## ado-trastuzumab emtansine [T-DM1]
SK-BR-3 cell line
  Max inh.: 85.37%
Calu-3 cell line
  IC50: 90.449 µg/mL
  Max inh.: 55.24%

## N#Cc1ccc(C(c2ccc(C#N)cc2)n2cncn2)cc1 [Letrozole]
BT-474 cell line
  cell inhibitory activity (in words): weak or no response
  Max inh.: −15.80%
BT-474 cell line; Homo sapiens, 72 h
  IC50: > 10 µM

## O=c1[nH]cc(F)c(=O)[nH]1 [5-FU, Fluorouracil]
TE-4 cells
  GI50: 7.9 µM
MDA-MB-453 cells; Homo sapiens, MDA-MB-453, 72 h
  GI50: 0.385 µM
BT-474 cells; Homo sapiens, BT-474, 72 h
  GI50: 9 µM
HCC827 cells; Homo sapiens, 72 h
  GI50: 0.98 µM
H1975 cells; Homo sapiens, NCI-H1975, 48 h
  GI50: > 10 µM

## CC(=O)c1c(C)c2cnc(Nc3ccc(N4CCNCC4)cn3)nc2n(C2CCCC2)c1=O [Palbociclib]
BT-474 cell line
  Max inh.: 12.13%
BT-474 cell line; Homo sapiens, 72 h
  IC50: > 5 µM

## CNC(=O)c1cc(Oc2ccc(NC(=O)Nc3ccc(Cl)c(C(F)(F)F)c3)cc2)ccn1 [Sorafenib]
Calu-3 cell line
  Max inh.: 64.29%
Calu-3 cell line; [1]
  IC50: 4.48 µM
